{"source": "patent US20230321133A1", "about": "“COMPOSITIONS AND METHODS FOR TREATING BACTERIAL INFECTIONS” (THE TRUSTEES OF DARTMOUTH COLLEGE, priority 2020, published 2023)", "key": {"[1]": {"tested_on": "P. aeruginosa strain PA14 biofilm", "experiment": "Crystal violet biofilm plate assay, strain PA14", "settings": "for sub-inhibitory antibiotic concentration for biofilm formation: PA14, absence of EVs; for biofilm formation, antibiotics alone: PA14, aztreonam 0.1 μg/ml or carbenicillin 5 μg/ml, no EVs", "experimental": "Studies were also conducted to examine the time course of EV inhibition of biofilm formation using the crystal violet plate assay. […] Studies were conducted to determine if EV increase the ability of 3-lactam antibiotics to inhibit planktonic growth and biofilm formation by P. aeruginosa using the crystal violet biofilm plate assay^64. The subthreshold concentration of ATM (0.1 μg/ml) and CAR (5 μg/ml) for biofilm formation by P. aeruginosa in the absence of EV was determined."}, "[2]": {"tested_on": "clinical isolates of P. aeruginosa", "experiment": "Crystal violet biofilm plate assay, clinical isolates", "settings": "six clinical isolates, carbenicillin 20 μg/ml, absence of EVs", "experimental": "It was also assessed whether EVs increase the ability of aztreonam to inhibit biofilm formation by clinical isolates of P. aeruginosa."}, "P. aeruginosa proteins": {"tested_on": "P. aeruginosa proteins", "experiment": "Unbiased proteomic (LC-MS/MS) analysis of P. aeruginosa exposed to EV", "type": "cell-based, Pseudomonas aeruginosa", "settings": "0.1 μg/ml aztreonam", "from_the_text": "EV targets MexGHI-OpmD, a multidrug efflux pump that contributes to resistance to fluoroquinolone antibiotics including ciprofloxacin. Hyper-expression of RND multidrug efflux pumps is frequent in clinical isolates of P. aeruginosa and contributes to the development of multi-drug resistance phenotypes in the clinical setting^17. To determine if EV containing let-7b target and reduce MexGHI-OpmD, an unbiased proteomic (LC-MS/MS) approach was used, as previously described 27.\nColumn 1-Genes involved in biofilm formation (PhzE1 and PhzE2 have been identified as targets of let-7b in preliminary experiments). Column 2-Percent change in protein abundance induced by EV, determined by LC-MS/MS. Column 3-IntaRNA targeting score for let-7b for each biofilm gene, indicating a highly energetically favorable interaction between let-7b and the target mRNA^51.\n[…]. […] According to the comprehensive antibiotic resistance database (CARD)57, eight of the 15 aztreonam-induced proteins have homology to beta-lactam resistance proteins in other bacteria. […]. […] This prediction is consistent with our observed phenotype of EV inhibition of biofilm formation. […]."}, "[3]": {"tested_on": "planktonic P. aeruginosa strain PA14", "experiment": "Planktonic growth yield assays, MIC and NIC of aztreonam", "type": "cell-based, Pseudomonas aeruginosa", "settings": "for MIC: Pseudomonas aeruginosa, read-out: minimal inhibitory concentration (MIC)"}}, "note": "Like-named read-outs stand apart in the source and are kept apart here.", "data": [{"smiles": "CC1(C)S[C@@H]2[C@H](NC(=O)C(C(=O)O)c3ccccc3)C(=O)N2[C@H]1C(=O)O", "note": "(stereo partly shown) [carbenicillin]", "values": [{"measurement": "sub-inhibitory antibiotic concentration for biofilm formation", "setting": "[1]", "value": 5, "unit": "µg/mL"}, {"measurement": "biofilm formation, antibiotics alone", "setting": "[1]", "value": "did not significantly alter"}, {"measurement": "biofilm formation", "setting": "[2]", "value": "did not significantly reduce"}]}, {"smiles": "C[C@H]1[C@H](NC(=O)/C(=N\\OC(C)(C)C(=O)O)c2csc(N)n2)C(=O)N1S(=O)(=O)O", "note": "[aztreonam]", "values": [{"measurement": "PA14_48790 and PA14_16020 abundance", "setting": "P. aeruginosa proteins", "value": "significantly induced"}, {"measurement": "beta-lactamase AmpC abundance", "setting": "P. aeruginosa proteins; 16 hours, p<0.05", "value": "significantly induced"}, {"measurement": "number of proteins significantly induced by at least 50%", "setting": "P. aeruginosa proteins; p<0.05 and log 2 fold change>0.58, in addition to AmpC", "value": 15}, {"measurement": "sub-inhibitory antibiotic concentration for biofilm formation", "setting": "[1]", "value": 0.1, "unit": "µg/mL"}, {"measurement": "biofilm formation, antibiotics alone", "setting": "[1]", "value": "did not significantly alter"}, {"measurement": "planktonic growth", "setting": "[3]; PA14, aztreonam 0.8 μg/ml alone compared to controls", "value": "significantly reduced"}, {"measurement": "non-inhibitory concentration (NIC)", "setting": "[3]; PA14, control (no EVs)", "value": 0.6, "unit": "µg/mL"}, {"measurement": "non-inhibitory concentration (NIC)", "setting": "[3]; PA14, with EVs", "value": 0.1, "unit": "µg/mL"}, {"measurement": "MIC", "setting": "[3]; PA14, PA14, control (no EVs)", "value": 2, "unit": "µg/mL"}, {"measurement": "MIC", "setting": "[3]; PA14, PA14, with EVs", "value": 0.8, "unit": "µg/mL"}]}]}
